The values that follow come from patent publication US5229373A, “Use of exogenous gangliosides as a protective factor against toxicity by antitumor drug vincristine” (Fidia S.p.A., priority 1986, dated 1993).

Data set [1] concerns mouse. Briefly: Effect of gangliosides on acute Vincristine toxicity (acute lethality, single i.v. dose). The data set is classed as in vivo. Particulars: Vincristine 3.0 mg/kg e.v. alone. As for the experimental part: The mice were subdivided into groups of not more than 8 in standard cages. Food and water were provided ad lib. The animals were housed in rooms under strictly controlled conditions.
1 mg of Vincristine was diluted to obtain the concentration necessary to inject 0.1 ml/10 g. body weight.
A solution of gangliosides was prepared by addition of sterile distilled water in a quantity sufficient to obtain a final concentration of 200 mg/kg in a volume of 0.2 ml. This dose was administrated to mice weighing about 20g.

Data set [2] can be described thus: Effect of ganglioside treatment on chronic Vincristine toxicity (lethality after sub-chronic pre-treatment or post-treatment). The settings on record: mouse, in vivo, iv, Table 4, read-out: Mortality rate, %. In kind it is in vivo, mouse. As to the method: (§1) Male mice CD-1 (ICR) BR (Charles River, Italy) weighing 25-30 g were used for the whole experiment. The animals were housed in groups of 10 per cage and fed with standard laboratory chow and tap water ad libitum. The animals were housed at constant room temperature (21°±1° C.) and relative humidity (60%) with controlled cycles of light/dark (light from 8.00 a.m. to 8.00 p.m.).
(§2) Vincristine sulphate (Lilly) was dissolved in saline and injected i.v. in a dose volume of 10 ml/kg, whereas the gangliosides were solubilized in a phosphate buffer (0.01M; pH 7.5) containing 0.8% of NaCl and administered i.m. at a dose volume of 5 ml/kg.
(§3) The ganglioside mixture (or vehicle) was administered i.m. daily for 5 consecutive days at different doses (50, 100 and 200 mg/kg) and Vincristine was injected i.v. 5 hours after the last treatment with gangliosides (or vehicle) in doses of 2.4 and 2.6 mg/kg.
(§4) The ganglioside mixture (or vehicle) was administered i.m. in doses of 200 mg/kg 5 hours before i.v. treatment with Vincristine for 5 consecutive days
(§5) The doses of Vincristine were of 2.2, 2.4 and 2.6 mg/kg.
(§6) The mortality rate was estimated by the number of animals that died within the first 14 days of Vincristine treatment.
(§7) The statistical significance between mortality rates was assessed by means of Fisher's exact probability test.
(§8) The results of the tests are reported in Tables 3 and 4 and graphed in FIG. 1. On the basis of the mortality rate curve after administration of Vincristine, doses between 2 and 3 mg/kg were chosen for the investigation with gangliosides. The first experiment compared the effects of ganglioside treatment before and after Vincristine injection.
(§9) In the case of post-treatment, a single administration of gangliosides was given in order to exclude the possibility that the greater efficacy of pre-treatment with gangliosides in reducing Vincristine toxicity, might only be due to the last ganglioside injection.

For data set [3], the system named is Male mice CD-1 (ICR) BR. Described as above. In kind it is in vivo, mouse. The settings on record: for Mortality rate: Table 3; for Mortality rate, No.: Table 4. As for the experimental part: as §1, §2, §3, §4, §5, §6, §7, §8, §9
In data set [4] the test system is sarcoma S180. Briefly: Antitumoral effect of Vincristine with and without CRONASSIAL, sarcoma S180. Particulars: S180, host SN; VCR 0,5 mg/kg i.p. days 1-6. In kind it is in vivo, mouse. As for the experimental part:
Male Swiss Schneider mice weighing 27 g. were used for experiments on sarcoma S180.
This tumor has been transplanted into the same strain of mouse in this laboratory for over 10 years. The transplant was carried out by s.c.inoculation of 0.1 ml of a tumoral homogenate obtained by finely mincing viable tumoral tissue, passed repeatedly through a 26 gauge needle into a sterile Petri dish. 0.1 ml of Penicillin (20,000 u/ml) and streptomycin (20,000 u/ml) were added to the solution. 5 mg of Neomycin were also added.
(§10) A standard vial containing 1 mg of Vincristine was used. It was prepared with a suitable volume of diluting solution to give the final concentration required for injection into 0.1 ml/10 g. of body weight.
(§11) A solution of this substance, which is a mixture of four gangliosides, was prepared by adding a volume of sterile distilled water suffi- cient to give a concentration of 200 mg/kg in a volume of 0.2 ml. This dose is administered to mice weighing approximately 20 g.

Data set [5] has as its system melanoma B16. Briefly: Antitumoral effect of Vincristine with and without CRONASSIAL, melanoma B16. In kind it is in vivo, mouse. Particulars: B16, host C57B1; VCR 0,5 mg/kg i.p. days 1-4, 7-11. As for the experimental part:
Female C57 B1 mice weighing 20 g. were used for experiments on melanoma B16.
This tumor was prepared by inoculation in the same way as that used for sarcoma S180.
as §10, §11

Data set [6] concerns leukemia L1210. As to the kind of experiment: Antitumoral effect of Vincristine with and without CRONASSIAL, leukemia L1210. The data set is classed as in vivo, mouse. As for the experimental part:
Male BDF1 mice weighing 30 g. were used for experiments on leukemia L1210.
Spleens were removed from the animals 7 days after inoculation of L1210 cells and were then finely minced with isotonic saline 1:100. 0.1 ml of this spleen and leukemia L1210 cell suspension was then injected s.c. into the flank of each BDF1 mouse.
as §10, §11

For data set [7], the system named is VCR-induced neuropathy. Particulars: electrophysiology, studies in man; cited from earlier work.
The subject of data set [8] is 3T3, neuroblastoma, glioma. The settings on record: exogenous addition; cited from earlier work.
The mark [9] stands for this setting: subchronic vehicle + VCR 2.4 mg/kg i.v.
[10] abbreviates: subchronic vehicle + VCR 2.6 mg/kg i.v.

Like-named read-outs stand apart in the source and are kept apart here.

Regarding `CC[C@]1(O)C[C@H]2CN(CCc3c([nH]c4ccccc34)[C@@](C(=O)OC)(c3cc4c(cc3OC)N(C=O)[C@H]3[C@@](O)(C(=O)OC)[C@H](OC(C)=O)[C@]5(CC)C=CCN6CC[C@]43[C@@H]65)C2)C1` [Vincristine], in data set [1], the “No. Survivors at 30 days” value is 2/8. Moreover, the mortality (usually the share of the test organisms that died) at 336 h turned out to be 38% in data set [2] (setting [9]) and 60% in data set [2] (setting [10]). Further, the Mortality rate in data set [3] (vehicle + VCR 2.4 mg/kg i.v.) is 7/10; in data set [3] (vehicle + VCR 2.6 mg/kg i.v.), 5/10. Further, the “Mortality rate, No.” value in data set [3] (setting [9]) is 19/50; in data set [3] (setting [10]), 30/50. Also, the results for the Mean tumor weight in data set [4] and in data set [5] were 0,64 g and 1,46 g, respectively. Besides, in data set [6] (L1210, host BDF1, VCR 1,0 mg/kg i.p. days 1-3), the Mean survival time is 7,8 gg. Besides, in data set [6] (L1210, Vincristine alone), the average survival time was 7.8 days. Moreover, the “type of VCR-induced neuropathy” value in data set [7] was “dying-back type”.
Turning to II^3 NeuAcGgOse4 Cer [GM1], the “cell growth and contact inhibition” value in data set [8] is “inhibits cell growth and induces contact inhibition”.
